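Exposure lasted 48 hours, with cells grown in 96-well plates and compounds tested at five concentrations. Here, GI50 denotes the concentration required for 50% inhibition of growth.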 The source made the active and inactive calls. Rule as the data show it: active = GI50 up to about 1.1 µM and inactive = higher.

The values below come from ChEMBL document CHEMBL1201862, “PubChem BioAssay data set” (2004).

What all share (assay): DTP human tumour cell line panel, 48 h
For assay [1], the system named is PC-3.
For assay [2], the system named is RPMI-8226.
Assay [3] has as its system HCC 2998.
Assay [4] deals with SK-MEL-2.
The test system of assay [5] is SF-539.
Assay [6] has as its system EKVX.
In assay [7] the test system is SR.
Assay [8] has as its system HT-29.
In assay [9] the test system is RXF 393.
Assay [10] relates to DU-145.
For assay [11], the system named is Hs-578T.
In assay [12] the test system is NCI-H522.
Assay [13] concerns OVCAR-8.
Assay [14] concerns OVCAR-4.
Assay [15] deals with A549.
The test system of assay [16] is CAKI-1.
Assay [17] concerns HOP-62.
The subject of assay [18] is OVCAR-3.
The subject of assay [19] is MDA-MB-231.
The subject of assay [20] is K562.

As for `COc1cc2c(cc1OC)C(SC)C(=O)N(Cc1cccc(OC)c1OC)CC2` (stereo not given), the GI50 in assay [1] is 1.28 µM (inactive); in assay [2], 3.61 µM (inactive); in assay [3] it was 2.46 µM (inactive); in assay [4] it was 1.26 µM (inactive); in [5] it was 1.22 µM (inactive); in assay [6], 4.7 µM (inactive). Moreover, the 50% growth inhibitory concentration (GI50) in [7] is 0.912 µM (active); in assay [8], 1.03 µM (active); in assay [9] it was 1.79 µM (inactive); in [10], 2.51 µM (inactive); in assay [11], 2.66 µM (inactive); in assay [12], 0.64 µM (active). Moreover, the GI50 in assay [13] is 4.29 µM (inactive); in [14], 17.5 µM (inactive); in assay [15], 1.73 µM (inactive); in assay [16] it was 13.6 µM (inactive); in assay [17], 2.75 µM (inactive); in [18], 0.798 µM (active). In addition, the GI50 in [19] was 5.48 µM (inactive); in assay [20], 0.501 µM (active).
Regarding `COC(=O)c1cc(C(=CCC[C@H]2CC[C@@]3(C)C(CCC4C3CC[C@@]3(C)C4CC[C@@H]3C(C)CCCC(C)C)C2)c2cc(Cl)c(O)c(C(=O)OC)c2)cc(Cl)c1O` (stereo not given in full), the GI50 in [1], in [2], in assay [3], in assay [4], in assay [5] and in [6] was > 10 µM (inactive) each time. The GI50 in [7], in assay [8], in assay [9], in [10], in [11] and in assay [12] was > 10 µM (inactive) in each case. Further, the GI50 in assay [13], in [14], in assay [15], in assay [16], in assay [17] and in [18] was > 10 µM (inactive) each time. The GI50 in assay [19] and in assay [20] was > 10 µM (inactive) in each case.
